Source: patent publication US5733719A, “Method of making an assay compound” (priority 1995, dated 1998)

What was measured:
[1] = tested on: Lymphs; experiment: Peptidases to distinguish leukemia from non-leukemia, lymphocytes; assay type: cell-based, human; set-up: unit not given here
From the text: (§1) Artificial intelligence was used to analyze data of cellular enzyme functions, and determine normal and disease states. Peptidases were used to distinguish leukemia from non-leukemia (output pattern). For input patterns lymphocyte and granulocyte cell types were used with aminopeptidases, cathepsins and dipeptidylpeptidase enzyme activities. In this Example, illustrated in Tables 6A-6C, three normals and three leukemia patients were used as known output patterns for the neural network to learn (in practice, the larger the learning set the more accurate unknown prediction will be). Unknowns were then presented to the learned algorithm as shown in the test case examples. Clinical diagnosis was confirmed by physicians. The trained neural network was able to correctly classify the leukemia from the non-leukemia.

[2] = tested on: Grans; experiment: Peptidases to distinguish leukemia from non-leukemia, granulocytes; assay type: cell-based, human; set-up: unit not given here
From the text: as §1

C[C@H](N)C(=O)Nc1ccc2c(c1)Oc1cc(NC(=O)[C@H](C)N)ccc1C21OC(=O)c2ccccc21 [ALA, (Ala)2 Rho 110]
enzyme activity ([1]; J4 11/21/91 acute leuk.): 86.00
enzyme activity ([1]; J4 12/2/91 AL): 68.10
enzyme activity ([1]; J4 12/3/91 acute leuk.): 74.64
enzyme activity ([1]; J5 11/27/91 AML): 92.44
enzyme activity ([1]; J19 11/27/91 CLL): 47.78
enzyme activity ([1]; J22 12/2/91 AML): 84.42
enzyme activity ([1]; J22 12/9/91 AML): 83.48
enzyme activity ([1]; N99° normal): 91.07
enzyme activity ([1]; N191 normal): 95.72
enzyme activity ([1]; N192 normal): 103.31
enzyme activity ([1]; N193 normal): 100.50
enzyme activity ([1]; N194 normal): 97.02
enzyme activity ([1]; N195 normal): 118.81
enzyme activity ([1]; N197 normal): 96.36
enzyme activity ([1]; N200 normal): 101.38
enzyme activity ([1]; N201 normal): 106.72
enzyme activity ([1]; N202 normal): 118.37
enzyme activity ([1]; N206 normal): 122.71
enzyme activity ([1]; P68 tachycardia): 1471.10
enzyme activity ([1]; P69 pancreatic CA): 130.34
enzyme activity ([1]; P70 cirrhosis/hemobilia): 141.87
enzyme activity ([1]; P71 ac. pyelonephritis): 109.26
enzyme activity ([2]; J4 11/21/91 acute leuk.): 193.43
enzyme activity ([2]; J4 12/2/91 AL): 139.53
enzyme activity ([2]; J4 12/3/91 acute leuk.): 138.89
enzyme activity ([2]; J5 11/27/91 AML): 194.85
enzyme activity ([2]; J19 11/27/91 CLL): 143.11
enzyme activity ([2]; J22 12/2/91 AML): 157.12
enzyme activity ([2]; J22 12/9/91 AML): 157.48
enzyme activity ([2]; N99° normal): 157.30
enzyme activity ([2]; N191 normal): 177.32
enzyme activity ([2]; N192 normal): 154.84
enzyme activity ([2]; N193 normal): 178.64
enzyme activity ([2]; N194 normal): 164.00
enzyme activity ([2]; N195 normal): 221.28
enzyme activity ([2]; N197 normal): 188.20
enzyme activity ([2]; N200 normal): 171.06
enzyme activity ([2]; N201 normal): 206.06
enzyme activity ([2]; N202 normal): 201.17
enzyme activity ([2]; N206 normal): 232.57
enzyme activity ([2]; P68 tachycardia): 276.07
enzyme activity ([2]; P69 pancreatic CA): 204.02
enzyme activity ([2]; P70 cirrhosis/hemobilia): 236.23
enzyme activity ([2]; P71 ac. pyelonephritis): 185.37

NC(=O)CC[C@H](N)C(=O)N[C@@H](CO)C(=O)Nc1ccc2c(c1)Oc1cc(NC(=O)[C@H](CO)NC(=O)[C@@H](N)CCC(N)=O)ccc1C21OC(=O)c2ccccc21 [QS, (H--L--Gln--Ser)2 Rho 110-2TFA]
enzyme activity ([1]; J4 11/21/91 acute leuk.): 0.05
enzyme activity ([1]; J4 12/2/91 AL): 0.01
enzyme activity ([1]; J4 12/3/91 acute leuk.): 0.06
enzyme activity ([1]; J5 11/27/91 AML): 0.07
enzyme activity ([1]; J19 11/27/91 CLL): 0.06
enzyme activity ([1]; J22 12/2/91 AML): 0.02
enzyme activity ([1]; J22 12/9/91 AML): 0.02
enzyme activity ([1]; N99° normal): 0.02
enzyme activity ([1]; N191 normal): 0.02
enzyme activity ([1]; N192 normal): 0.03
enzyme activity ([1]; N193 normal): 0.03
enzyme activity ([1]; N194 normal): 0.02
enzyme activity ([1]; N195 normal): 0.04
enzyme activity ([1]; N197 normal): 0.06
enzyme activity ([1]; N200 normal): 0.01
enzyme activity ([1]; N201 normal): 0.02
enzyme activity ([1]; N202 normal): 0.01
enzyme activity ([1]; N206 normal): 0.04
enzyme activity ([1]; P68 tachycardia): 0.02
enzyme activity ([1]; P69 pancreatic CA): 0.31
enzyme activity ([1]; P70 cirrhosis/hemobilia): 0.04
enzyme activity ([1]; P71 ac. pyelonephritis): 0.05
enzyme activity ([2]; J4 11/21/91 acute leuk.): 0.22
enzyme activity ([2]; J4 12/2/91 AL): 0.44
enzyme activity ([2]; J4 12/3/91 acute leuk.): 0.19
enzyme activity ([2]; J5 11/27/91 AML): 1.24
enzyme activity ([2]; J19 11/27/91 CLL): 1.16
enzyme activity ([2]; J22 12/2/91 AML): 0.10
enzyme activity ([2]; J22 12/9/91 AML): 0.24
enzyme activity ([2]; N99° normal): 0.05
enzyme activity ([2]; N191 normal): 0.19
enzyme activity ([2]; N192 normal): 0.15
enzyme activity ([2]; N193 normal): 0.14
enzyme activity ([2]; N194 normal): 0.07
enzyme activity ([2]; N195 normal): 0.21
enzyme activity ([2]; N197 normal): 0.24
enzyme activity ([2]; N200 normal): 0.06
enzyme activity ([2]; N201 normal): 0.09
enzyme activity ([2]; N202 normal): 0.08
enzyme activity ([2]; N206 normal): 0.27
enzyme activity ([2]; P68 tachycardia): 0.33
enzyme activity ([2]; P69 pancreatic CA): 0.37
enzyme activity ([2]; P70 cirrhosis/hemobilia): 0.19
enzyme activity ([2]; P71 ac. pyelonephritis): 0.51

NCCCC[C@H](N)C(=O)Nc1ccc2c(c1)Oc1cc(NC(=O)[C@@H](N)CCCCN)ccc1C21OC(=O)c2ccccc21 [LYS, (H--L--Lys)2 Rho 110-4TFA]
enzyme activity ([1]; J4 11/21/91 acute leuk.): 0.77
enzyme activity ([1]; J4 12/2/91 AL): 1.81
enzyme activity ([1]; J4 12/3/91 acute leuk.): 1.64
enzyme activity ([1]; J5 11/27/91 AML): 5.71
enzyme activity ([1]; J19 11/27/91 CLL): 0.98
enzyme activity ([1]; J22 12/2/91 AML): 0.74
enzyme activity ([1]; J22 12/9/91 AML): 1.20
enzyme activity ([1]; N99° normal): 0.33
enzyme activity ([1]; N191 normal): 1.18
enzyme activity ([1]; N192 normal): 0.56
enzyme activity ([1]; N193 normal): 0.52
enzyme activity ([1]; N194 normal): 0.93
enzyme activity ([1]; N195 normal): 1.07
enzyme activity ([1]; N197 normal): 0.70
enzyme activity ([1]; N200 normal): 0.90
enzyme activity ([1]; N201 normal): 1.05
enzyme activity ([1]; N202 normal): 0.71
enzyme activity ([1]; N206 normal): 1.65
enzyme activity ([1]; P68 tachycardia): 1.51
enzyme activity ([1]; P69 pancreatic CA): 1.22
enzyme activity ([1]; P70 cirrhosis/hemobilia): 1.02
enzyme activity ([1]; P71 ac. pyelonephritis): 0.91
enzyme activity ([2]; J4 11/21/91 acute leuk.): 3.01
enzyme activity ([2]; J4 12/2/91 AL): 4.09
enzyme activity ([2]; J4 12/3/91 acute leuk.): 3.19
enzyme activity ([2]; J5 11/27/91 AML): 14.86
enzyme activity ([2]; J19 11/27/91 CLL): 4.41
enzyme activity ([2]; J22 12/2/91 AML): 1.41
enzyme activity ([2]; J22 12/9/91 AML): 1.90
enzyme activity ([2]; N99° normal): 0.95
enzyme activity ([2]; N191 normal): 1.20
enzyme activity ([2]; N192 normal): 1.20
enzyme activity ([2]; N193 normal): 1.43
enzyme activity ([2]; N194 normal): 1.56
enzyme activity ([2]; N195 normal): 2.53
enzyme activity ([2]; N197 normal): 1.59
enzyme activity ([2]; N200 normal): 1.46
enzyme activity ([2]; N201 normal): 2.06
enzyme activity ([2]; N202 normal): 13.22
enzyme activity ([2]; N206 normal): 3.11
enzyme activity ([2]; P68 tachycardia): 3.09
enzyme activity ([2]; P69 pancreatic CA): 2.14
enzyme activity ([2]; P70 cirrhosis/hemobilia): 2.33
enzyme activity ([2]; P71 ac. pyelonephritis): 4.17

C[C@@H](O)[C@H](N)C(=O)N1CCC[C@H]1C(=O)Nc1ccc2c(c1)Oc1cc(NC(=O)[C@@H]3CCCN3C(=O)[C@@H](N)[C@@H](C)O)ccc1C21OC(=O)c2ccccc21 [TP]
enzyme activity ([1]; J4 11/21/91 acute leuk.): 2.30
enzyme activity ([1]; J4 12/2/91 AL): 1.46
enzyme activity ([1]; J4 12/3/91 acute leuk.): 1.18
enzyme activity ([1]; J5 11/27/91 AML): 1.32
enzyme activity ([1]; J19 11/27/91 CLL): 0.50
enzyme activity ([1]; J22 12/2/91 AML): 0.99
enzyme activity ([1]; J22 12/9/91 AML): 1.02
enzyme activity ([1]; N99° normal): 1.86
enzyme activity ([1]; N191 normal): 2.14
enzyme activity ([1]; N192 normal): 2.12
enzyme activity ([1]; N194 normal): 1.82
enzyme activity ([1]; N195 normal): 1.90
enzyme activity ([1]; N197 normal): 1.96
enzyme activity ([1]; N200 normal): 2.39
enzyme activity ([1]; N201 normal): 1.88
enzyme activity ([1]; N202 normal): 2.49
enzyme activity ([1]; N206 normal): 2.89
enzyme activity ([1]; P68 tachycardia): 1.90
enzyme activity ([1]; P69 pancreatic CA): 2.26
enzyme activity ([1]; P70 cirrhosis/hemobilia): 1.89
enzyme activity ([1]; P71 ac. pyelonephritis): 1.86
enzyme activity ([2]; J4 11/21/91 acute leuk.): 5.96
enzyme activity ([2]; J4 12/2/91 AL): 2.59
enzyme activity ([2]; J4 12/3/91 acute leuk.): 1.93
enzyme activity ([2]; J5 11/27/91 AML): 2.72
enzyme activity ([2]; J19 11/27/91 CLL): 2.95
enzyme activity ([2]; J22 12/2/91 AML): 2.33
enzyme activity ([2]; J22 12/9/91 AML): 2.51
enzyme activity ([2]; N99° normal): 3.71
enzyme activity ([2]; N191 normal): 4.73
enzyme activity ([2]; N192 normal): 4.62
enzyme activity ([2]; N193 normal): 4.96
enzyme activity ([2]; N194 normal): 3.77
enzyme activity ([2]; N195 normal): 3.74
enzyme activity ([2]; N197 normal): 3.82
enzyme activity ([2]; N200 normal): 4.69
enzyme activity ([2]; N201 normal): 4.23
enzyme activity ([2]; N202 normal): 4.44
enzyme activity ([2]; N206 normal): 5.98
enzyme activity ([2]; P68 tachycardia): 4.63
enzyme activity ([2]; P69 pancreatic CA): 4.21
enzyme activity ([2]; P70 cirrhosis/hemobilia): 4.02
enzyme activity ([2]; P71 ac. pyelonephritis): 4.37

NCC(=O)N1CCC[C@H]1C(=O)Nc1ccc2c(c1)Oc1cc(NC(=O)[C@@H]3CCCN3C(=O)CN)ccc1C21OC(=O)c2ccccc21 [GP]
enzyme activity ([1]; J4 11/21/91 acute leuk.): 2.72
enzyme activity ([1]; J4 12/2/91 AL): 3.80
enzyme activity ([1]; J4 12/3/91 acute leuk.): 4.17
enzyme activity ([1]; J5 11/27/91 AML): 3.40
enzyme activity ([1]; J19 11/27/91 CLL): 1.73
enzyme activity ([1]; J22 12/2/91 AML): 1.73
enzyme activity ([1]; J22 12/9/91 AML): 3.01
enzyme activity ([1]; N99° normal): 5.55
enzyme activity ([1]; N191 normal): 4.14
enzyme activity ([1]; N192 normal): 3.00
enzyme activity ([1]; N193 normal): 3.00
enzyme activity ([1]; N194 normal): 5.22
enzyme activity ([1]; N195 normal): 5.24
enzyme activity ([1]; N197 normal): 5.97
enzyme activity ([1]; N200 normal): 5.38
enzyme activity ([1]; N201 normal): 6.53
enzyme activity ([1]; N202 normal): 6.61
enzyme activity ([1]; N206 normal): 7.09
enzyme activity ([1]; P68 tachycardia): 5.92
enzyme activity ([1]; P69 pancreatic CA): 6.80
enzyme activity ([1]; P70 cirrhosis/hemobilia): 6.68
enzyme activity ([1]; P71 ac. pyelonephritis): 3.55
enzyme activity ([2]; J4 11/21/91 acute leuk.): 10.75
enzyme activity ([2]; J4 12/2/91 AL): 11.08
enzyme activity ([2]; J4 12/3/91 acute leuk.): 1.28
enzyme activity ([2]; J5 11/27/91 AML): 8.95
enzyme activity ([2]; J19 11/27/91 CLL): 1.39
enzyme activity ([2]; J22 12/2/91 AML): 13.98
enzyme activity ([2]; J22 12/9/91 AML): 11.52
enzyme activity ([2]; N99° normal): 13.41
enzyme activity ([2]; N191 normal): 11.20
enzyme activity ([2]; N192 normal): 11.22
enzyme activity ([2]; N193 normal): 8.87
enzyme activity ([2]; N194 normal): 12.49
enzyme activity ([2]; N195 normal): 13.31
enzyme activity ([2]; N197 normal): 15.85
enzyme activity ([2]; N200 normal): 12.74
enzyme activity ([2]; N201 normal): 15.92
enzyme activity ([2]; N202 normal): 14.44
enzyme activity ([2]; N206 normal): 17.96
enzyme activity ([2]; P68 tachycardia): 16.08
enzyme activity ([2]; P69 pancreatic CA): 16.21
enzyme activity ([2]; P70 cirrhosis/hemobilia): 16.42
enzyme activity ([2]; P71 ac. pyelonephritis): 11.07
